Measurements reported in paper PMC5974779, “Prediction of Drug-Induced Hepatotoxicity Using Long-Term Stable Primary Hepatic 3D Spheroid Cultures in Chemically Defined Conditions” (Toxicological Sciences, 2018).

Tested on: clinical DILI in man
Conditions: in vivo; cited from earlier work

Row | Compound | Classified as | Clinical DILI class (panel heading of Figure 4) | DILI in vivo | FDA (0-8) | FDA (Severity) | Guo et al. (2005) | O'Brien et al. (2003) | Sakatis et al. (2012) | Suzuki et al. (2010) | Type of DILI
1 | Sc1ncnc2nc[nH]c12 [Mercaptopurine] | POS | Severe DILI | POS | 8 | most DILI concern | 3 | Severely | Hepatotoxic | 2 | Cholestatic injury or Mixed hepatitis
2 | CC(C)(Oc1ccc(CCNC(=O)c2ccc(Cl)cc2)cc1)C(=O)O [Bezafibrate] | NEG | DILI negative | NEG | – | – | – | – | – | – | Non-hepatotoxic
3 | CC(C)NCC(O)c1ccc(O)c(O)c1 (centres unmarked) [Isoproterenol] | NEG | DILI negative | NEG | 0 | – | – | Non-toxic | – | – | Non-hepatotoxic
4 | NCCc1ccc(O)c(O)c1 [Dopamine] | NEG | DILI negative | NEG | 0 | – | – | – | – | – | Non-hepatotoxic
5 | Cc1nc2n(c(=O)c1CCN1CCC(c3noc4cc(F)ccc34)CC1)CCCC2 [Risperidone] | POS | High DILI concern | POS | 3 | – | 2 | – | – | 1 | Hepatocellular injury, Cholestatic injury or Mixed hepatitis
6 | Cc1ncc(CO)c(CO)c1O [Pyridoxine] | NEG | DILI negative | NEG | 0 | – | – | Non-toxic | – | – | Non-hepatotoxic
7 | O=C(OCC(O)CO)c1ccccc1Nc1ccnc2cc(Cl)ccc12 (centres unmarked) [Glafenine] | POS | Severe DILI | POS | Withdrawn | most DILI concern | – | – | Hepatotoxic | – | Hepatocellular injury

Same assay, conditions: in vivo; cited from earlier work

Row | Compound | Xu et al. (2008)
8 | Sc1ncnc2nc[nH]c12 [Mercaptopurine] | Positive
9 | CC(C)NCC(O)c1ccc(O)c(O)c1 (centres unmarked) [Isoproterenol] | Negative
10 | NCCc1ccc(O)c(O)c1 [Dopamine] | Negative
11 | Cc1nc2n(c(=O)c1CCN1CCC(c3noc4cc(F)ccc34)CC1)CCCC2 [Risperidone] | Positive
12 | Cc1ncc(CO)c(CO)c1O [Pyridoxine] | Negative
13 | O=C(OCC(O)CO)c1ccccc1Nc1ccnc2cc(Cl)ccc12 (centres unmarked) [Glafenine] | Positive

Tested on: not given
Conditions: therapeutic total cmax; ref PMID; cited from earlier work

Row | Compound | Cmax [nM]
14 | Sc1ncnc2nc[nH]c12 [Mercaptopurine] | 480
15 | Clc1ccccc1CN1CCc2sccc2C1 [Ticlopidine] | 8070
16 | CC(C)(Oc1ccc(CCNC(=O)c2ccc(Cl)cc2)cc1)C(=O)O [Bezafibrate] | 16600
17 | CC(C)NCC(O)c1ccc(O)c(O)c1 (centres unmarked) [Isoproterenol] | 2020
18 | NCCc1ccc(O)c(O)c1 [Dopamine] | 121
19 | Cc1nc2n(c(=O)c1CCN1CCC(c3noc4cc(F)ccc34)CC1)CCCC2 [Risperidone] | 80
20 | Cc1ncc(CO)c(CO)c1O [Pyridoxine] | 122
21 | O=C(OCC(O)CO)c1ccccc1Nc1ccnc2cc(Cl)ccc12 (centres unmarked) [Glafenine] | 1880

Tested on: not given
Conditions: ref DrugBank and Prescribers' Digital Reference database; cited from earlier work

Row | Compound | Extent of hepatic metabolism
22 | Sc1ncnc2nc[nH]c12 [Mercaptopurine] | Extensive
23 | CC(C)(Oc1ccc(CCNC(=O)c2ccc(Cl)cc2)cc1)C(=O)O [Bezafibrate] | Extensive
24 | CC(C)NCC(O)c1ccc(O)c(O)c1 (centres unmarked) [Isoproterenol] | Moderate
25 | NCCc1ccc(O)c(O)c1 [Dopamine] | Extensive
26 | Cc1nc2n(c(=O)c1CCN1CCC(c3noc4cc(F)ccc34)CC1)CCCC2 [Risperidone] | Extensive
27 | Cc1ncc(CO)c(CO)c1O [Pyridoxine] | Extensive
28 | O=C(OCC(O)CO)c1ccccc1Nc1ccnc2cc(Cl)ccc12 (centres unmarked) [Glafenine] | Extensive

Same assay, conditions: ref Madden et al., 1995; El-Hage and Surguladze, 2010; Rawden et al., 2000; Villaverde et al.; cited from earlier work

Row | Compound | first pass metabolism
29 | Cc1nc2n(c(=O)c1CCN1CCC(c3noc4cc(F)ccc34)CC1)CCCC2 [Risperidone] | extensive first pass metabolism

Tested on: PHH spheroids (hanging-drop)
Conditions: 100× cmax, 2 weeks; ref Proctor et al., 2017; cited from earlier work

Row | Compound | hepatotoxicity classification in hanging-drop PHH spheroids
30 | COc1ccc2c(c1)c(CC(=O)O)c(C)n2C(=O)c1ccc(Cl)cc1 [Indomethacin] | previously missed

Same assay, conditions: PHH hanging-drop spheroids, 100x Cmax; ref Proctor 2017; cited from earlier work

Row | Compound | Hanging-drop spheroids (Proctor 2017) 100x
31 | CCCCc1oc2ccccc2c1C(=O)c1cc(I)c(OCCN(CC)CC)c(I)c1 [Amiodarone] | Positive
32 | Clc1ccccc1CN1CCc2sccc2C1 [Ticlopidine] | Positive

Tested on: primary human hepatocytes (PHH) 3D spheroids
Conditions: not given

Row | Compound | Chemically defined spheroids (this study) 20x | hepatotoxicity evaluation in CD-spheroids
33 | COc1ccc2c(c1)c(CC(=O)O)c(C)n2C(=O)c1ccc(Cl)cc1 [Indomethacin] | Positive | revealed the DILI liability
34 | Sc1ncnc2nc[nH]c12 [Mercaptopurine] | Positive | –
35 | CC(C)(Oc1ccc(CCNC(=O)c2ccc(Cl)cc2)cc1)C(=O)O [Bezafibrate] | Negative | –
36 | CC(C)NCC(O)c1ccc(O)c(O)c1 (centres unmarked) [Isoproterenol] | Negative | –
37 | NCCc1ccc(O)c(O)c1 [Dopamine] | Negative | –
38 | Cc1nc2n(c(=O)c1CCN1CCC(c3noc4cc(F)ccc34)CC1)CCCC2 [Risperidone] | Negative | –
39 | Cc1ncc(CO)c(CO)c1O [Pyridoxine] | Negative | –
40 | O=C(OCC(O)CO)c1ccccc1Nc1ccnc2cc(Cl)ccc12 (centres unmarked) [Glafenine] | Negative | –

Same assay, conditions: human, 14 days

Row | Compound | hepatotoxicity evaluation in CD-spheroids
41 | COc1ccc2c(c1)c(CC(=O)O)c(C)n2C(=O)c1ccc(Cl)cc1 [Indomethacin] | clearly detected already at 1× cmax exposure levels

Tested on: PHH 2D sandwich cultures
Conditions: PHH 2D sandwich cultures, 100x Cmax; ref Xu 2008; cited from earlier work

Row | Compound | 2Dsw (Xu 2008) 100x
42 | Sc1ncnc2nc[nH]c12 [Mercaptopurine] | Negative
43 | CCCCc1oc2ccccc2c1C(=O)c1cc(I)c(OCCN(CC)CC)c(I)c1 [Amiodarone] | Positive
44 | Clc1ccccc1CN1CCc2sccc2C1 [Ticlopidine] | Positive
45 | CC(C)(Oc1ccc(CCNC(=O)c2ccc(Cl)cc2)cc1)C(=O)O [Bezafibrate] | Negative
46 | CC(C)NCC(O)c1ccc(O)c(O)c1 (centres unmarked) [Isoproterenol] | Negative
47 | NCCc1ccc(O)c(O)c1 [Dopamine] | Negative
48 | Cc1nc2n(c(=O)c1CCN1CCC(c3noc4cc(F)ccc34)CC1)CCCC2 [Risperidone] | Negative
49 | Cc1ncc(CO)c(CO)c1O [Pyridoxine] | Negative
50 | O=C(OCC(O)CO)c1ccccc1Nc1ccnc2cc(Cl)ccc12 (centres unmarked) [Glafenine] | Negative
